This is an account of results in article PMC7827406, “Structure–Activity Relationship (SAR) Study of Spautin-1 to Entail the Discovery of Novel NEK4 Inhibitors” (International Journal of Molecular Sciences, 2021).

The structures appear in SMILES notation. Like-named read-outs stand apart in the source and are kept apart here.

Holding throughout (assay): biochemical
Holding throughout (design): Eurofins KinaseProfiler full panel at Km ATP, residual kinase activity (%) relative to DMSO

For one assay, the target named is T1, PAR-1Bα(h) (Homo sapiens, UniProt Q7KZI7).
T1 construct: gene MARK2
In outline: (§1)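 Radiometric kinase activity assays were run with ATP at Km and compounds at 10 µM, and remaining activity (%) was reported. A separate competitive binding screen measured DNA-tagged kinase displaced from immobilized active-site ligands by qPCR, giving percent kinase still bound at 10 µM compound in DMSO.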

The target in the next assay is T2, MLK2(h) (Homo sapiens, UniProt Q02779).
T2 construct: gene MAP3K10
The gist of the method: as §1

In another assay the target is T3, CK1δ(h) (Homo sapiens, UniProt P48730).
T3 construct: gene CSNK1D
In outline:
as §1

A further assay deals with T4, Axl(h) (Homo sapiens, UniProt P30530).
T4 sequence (P30530 1-894): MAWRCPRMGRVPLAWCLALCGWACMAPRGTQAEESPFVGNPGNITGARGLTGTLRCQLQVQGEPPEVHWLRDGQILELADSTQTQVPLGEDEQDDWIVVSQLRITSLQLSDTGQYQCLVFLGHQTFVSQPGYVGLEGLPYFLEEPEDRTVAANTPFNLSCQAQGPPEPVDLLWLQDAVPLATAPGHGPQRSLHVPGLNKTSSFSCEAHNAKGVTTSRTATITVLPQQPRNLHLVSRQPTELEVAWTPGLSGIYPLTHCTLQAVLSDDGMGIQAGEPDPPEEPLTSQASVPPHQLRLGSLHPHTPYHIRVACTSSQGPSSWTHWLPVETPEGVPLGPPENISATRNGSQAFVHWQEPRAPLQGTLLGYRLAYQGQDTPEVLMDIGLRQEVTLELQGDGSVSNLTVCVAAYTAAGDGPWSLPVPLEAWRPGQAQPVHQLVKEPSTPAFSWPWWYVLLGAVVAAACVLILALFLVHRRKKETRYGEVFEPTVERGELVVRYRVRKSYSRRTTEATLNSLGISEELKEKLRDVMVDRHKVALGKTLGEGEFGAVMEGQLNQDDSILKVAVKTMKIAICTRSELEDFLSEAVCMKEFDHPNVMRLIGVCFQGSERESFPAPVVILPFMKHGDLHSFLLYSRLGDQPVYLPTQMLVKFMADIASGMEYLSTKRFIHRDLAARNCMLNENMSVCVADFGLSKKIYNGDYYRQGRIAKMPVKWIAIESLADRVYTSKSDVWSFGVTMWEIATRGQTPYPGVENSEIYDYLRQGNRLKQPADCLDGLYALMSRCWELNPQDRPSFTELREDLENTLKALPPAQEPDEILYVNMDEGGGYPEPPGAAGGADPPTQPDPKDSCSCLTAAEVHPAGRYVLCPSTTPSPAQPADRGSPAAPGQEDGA
The gist of the method: as §1

Another assay has as its target MARK1(h) (Homo sapiens, UniProt Q9P0L2). In outline:
as §1

For a further assay, the target named is MAP4K5(h) (Homo sapiens, UniProt Q9Y4K4). The gist of the method: as §1
The target of another assay is SRPK1(h) (Homo sapiens, UniProt Q96SB4). The gist of the method:
as §1

The next assay concerns the target T5, MLK3(h) (Homo sapiens, UniProt Q16584).
T5 construct: gene MAP3K11
The gist of the method:
as §1

The next assay concerns the target T6, PKG1β(h) (Homo sapiens, UniProt Q13976).
T6 construct: gene PRKG1; isoform 1beta
T6 sequence (Q13976 1-671): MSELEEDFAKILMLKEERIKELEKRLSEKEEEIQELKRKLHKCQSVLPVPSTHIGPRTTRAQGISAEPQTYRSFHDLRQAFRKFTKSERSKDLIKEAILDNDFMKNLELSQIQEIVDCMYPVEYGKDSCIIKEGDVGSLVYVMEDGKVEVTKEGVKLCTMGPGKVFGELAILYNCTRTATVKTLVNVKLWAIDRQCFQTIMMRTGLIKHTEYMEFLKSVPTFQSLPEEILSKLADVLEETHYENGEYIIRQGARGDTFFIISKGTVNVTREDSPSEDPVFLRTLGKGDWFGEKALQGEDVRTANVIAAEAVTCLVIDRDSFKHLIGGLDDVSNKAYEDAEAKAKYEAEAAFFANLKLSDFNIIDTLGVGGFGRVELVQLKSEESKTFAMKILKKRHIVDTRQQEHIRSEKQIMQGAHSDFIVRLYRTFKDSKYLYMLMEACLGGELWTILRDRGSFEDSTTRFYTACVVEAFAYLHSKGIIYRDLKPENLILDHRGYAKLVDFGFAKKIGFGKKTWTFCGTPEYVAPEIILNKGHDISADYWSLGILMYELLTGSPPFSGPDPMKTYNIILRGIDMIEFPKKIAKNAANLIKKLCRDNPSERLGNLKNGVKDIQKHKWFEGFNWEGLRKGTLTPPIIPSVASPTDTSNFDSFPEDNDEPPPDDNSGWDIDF
The gist of the method: as §1

The mark [1] stands for this setting: read-out: Residual activity (%) Spautin-1 5aa.
Where [2] appears, read: read-out: Residual activity (%) 5as.
Where [3] appears, read: read-out: Residual activity (%) 5at.
[4] abbreviates: read-out: Residual activity (%) 5ay.

T3 sequence (P48730 whole entry): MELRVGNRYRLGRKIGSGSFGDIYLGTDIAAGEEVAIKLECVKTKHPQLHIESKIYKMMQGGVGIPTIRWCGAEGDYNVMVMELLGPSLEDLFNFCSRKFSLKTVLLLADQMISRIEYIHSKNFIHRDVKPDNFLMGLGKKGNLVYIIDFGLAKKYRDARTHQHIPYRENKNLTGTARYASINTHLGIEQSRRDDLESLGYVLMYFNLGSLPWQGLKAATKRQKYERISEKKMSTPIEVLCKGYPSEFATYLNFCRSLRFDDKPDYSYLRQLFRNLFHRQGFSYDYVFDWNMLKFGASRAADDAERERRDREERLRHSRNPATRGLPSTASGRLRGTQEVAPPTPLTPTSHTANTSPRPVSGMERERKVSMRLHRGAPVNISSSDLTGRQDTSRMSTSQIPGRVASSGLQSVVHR
T5 sequence (Q16584 whole entry): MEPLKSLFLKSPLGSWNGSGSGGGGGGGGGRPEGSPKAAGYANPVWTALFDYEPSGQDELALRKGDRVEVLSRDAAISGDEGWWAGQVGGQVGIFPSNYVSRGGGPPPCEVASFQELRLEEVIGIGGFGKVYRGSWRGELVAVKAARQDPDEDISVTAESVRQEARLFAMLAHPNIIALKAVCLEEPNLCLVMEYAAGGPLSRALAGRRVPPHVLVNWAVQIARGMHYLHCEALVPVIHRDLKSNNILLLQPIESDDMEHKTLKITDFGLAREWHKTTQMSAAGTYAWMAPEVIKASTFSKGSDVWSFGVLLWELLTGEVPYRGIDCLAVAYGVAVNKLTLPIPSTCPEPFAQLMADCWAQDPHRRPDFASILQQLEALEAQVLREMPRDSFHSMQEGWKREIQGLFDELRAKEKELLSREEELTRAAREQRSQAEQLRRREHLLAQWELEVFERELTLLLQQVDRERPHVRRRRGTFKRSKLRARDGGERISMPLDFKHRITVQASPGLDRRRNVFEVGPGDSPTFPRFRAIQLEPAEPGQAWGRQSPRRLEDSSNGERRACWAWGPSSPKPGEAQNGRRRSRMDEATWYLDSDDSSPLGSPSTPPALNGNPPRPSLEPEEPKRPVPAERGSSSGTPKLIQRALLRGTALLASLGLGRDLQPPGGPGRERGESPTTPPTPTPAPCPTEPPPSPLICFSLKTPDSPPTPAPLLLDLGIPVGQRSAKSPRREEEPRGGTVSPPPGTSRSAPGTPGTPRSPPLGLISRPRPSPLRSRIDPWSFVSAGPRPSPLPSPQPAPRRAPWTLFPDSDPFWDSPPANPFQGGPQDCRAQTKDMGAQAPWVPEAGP
Sequence of MARK1(h) (Q9P0L2 whole entry): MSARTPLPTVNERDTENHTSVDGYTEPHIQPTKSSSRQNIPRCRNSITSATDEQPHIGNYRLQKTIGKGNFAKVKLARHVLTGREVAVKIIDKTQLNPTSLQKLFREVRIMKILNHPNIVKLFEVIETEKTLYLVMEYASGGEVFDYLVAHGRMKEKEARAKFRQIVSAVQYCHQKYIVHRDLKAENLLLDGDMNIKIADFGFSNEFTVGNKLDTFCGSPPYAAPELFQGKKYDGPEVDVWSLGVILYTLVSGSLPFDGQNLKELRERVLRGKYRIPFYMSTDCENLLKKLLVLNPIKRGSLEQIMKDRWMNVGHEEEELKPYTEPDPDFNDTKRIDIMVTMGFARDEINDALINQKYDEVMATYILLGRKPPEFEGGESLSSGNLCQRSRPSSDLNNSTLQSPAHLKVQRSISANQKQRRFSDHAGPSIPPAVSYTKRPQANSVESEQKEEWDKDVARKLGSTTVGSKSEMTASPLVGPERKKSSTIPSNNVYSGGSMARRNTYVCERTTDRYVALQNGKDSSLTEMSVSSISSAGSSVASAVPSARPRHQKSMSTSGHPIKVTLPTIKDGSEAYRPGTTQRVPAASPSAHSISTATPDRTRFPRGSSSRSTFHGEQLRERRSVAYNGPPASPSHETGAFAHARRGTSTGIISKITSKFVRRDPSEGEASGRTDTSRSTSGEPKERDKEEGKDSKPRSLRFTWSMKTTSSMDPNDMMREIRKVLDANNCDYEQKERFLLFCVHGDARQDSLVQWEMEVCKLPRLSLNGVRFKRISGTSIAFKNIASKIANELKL
Sequence of MAP4K5(h) (Q9Y4K4 whole entry): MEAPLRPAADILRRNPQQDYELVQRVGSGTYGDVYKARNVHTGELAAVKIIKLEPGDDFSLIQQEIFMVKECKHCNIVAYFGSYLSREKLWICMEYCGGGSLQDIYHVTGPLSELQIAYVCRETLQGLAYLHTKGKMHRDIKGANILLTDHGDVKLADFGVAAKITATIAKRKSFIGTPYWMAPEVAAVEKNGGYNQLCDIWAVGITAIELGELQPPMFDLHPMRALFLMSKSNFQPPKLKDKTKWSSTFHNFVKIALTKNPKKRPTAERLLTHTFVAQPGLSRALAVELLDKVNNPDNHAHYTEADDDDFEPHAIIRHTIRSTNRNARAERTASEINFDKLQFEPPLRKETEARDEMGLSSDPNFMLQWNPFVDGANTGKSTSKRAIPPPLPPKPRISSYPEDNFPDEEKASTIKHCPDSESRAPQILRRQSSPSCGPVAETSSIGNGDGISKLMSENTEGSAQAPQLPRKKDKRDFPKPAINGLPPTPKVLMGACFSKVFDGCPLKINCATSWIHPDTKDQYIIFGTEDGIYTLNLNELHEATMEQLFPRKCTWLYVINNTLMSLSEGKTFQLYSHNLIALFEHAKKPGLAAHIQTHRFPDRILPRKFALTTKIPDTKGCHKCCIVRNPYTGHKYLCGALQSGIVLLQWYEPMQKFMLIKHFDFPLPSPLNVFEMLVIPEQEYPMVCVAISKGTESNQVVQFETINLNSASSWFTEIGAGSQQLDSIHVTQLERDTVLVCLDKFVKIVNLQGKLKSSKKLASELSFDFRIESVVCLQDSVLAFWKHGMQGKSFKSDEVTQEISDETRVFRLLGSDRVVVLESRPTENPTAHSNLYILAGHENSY
T1 sequence (Q7KZI7 whole entry): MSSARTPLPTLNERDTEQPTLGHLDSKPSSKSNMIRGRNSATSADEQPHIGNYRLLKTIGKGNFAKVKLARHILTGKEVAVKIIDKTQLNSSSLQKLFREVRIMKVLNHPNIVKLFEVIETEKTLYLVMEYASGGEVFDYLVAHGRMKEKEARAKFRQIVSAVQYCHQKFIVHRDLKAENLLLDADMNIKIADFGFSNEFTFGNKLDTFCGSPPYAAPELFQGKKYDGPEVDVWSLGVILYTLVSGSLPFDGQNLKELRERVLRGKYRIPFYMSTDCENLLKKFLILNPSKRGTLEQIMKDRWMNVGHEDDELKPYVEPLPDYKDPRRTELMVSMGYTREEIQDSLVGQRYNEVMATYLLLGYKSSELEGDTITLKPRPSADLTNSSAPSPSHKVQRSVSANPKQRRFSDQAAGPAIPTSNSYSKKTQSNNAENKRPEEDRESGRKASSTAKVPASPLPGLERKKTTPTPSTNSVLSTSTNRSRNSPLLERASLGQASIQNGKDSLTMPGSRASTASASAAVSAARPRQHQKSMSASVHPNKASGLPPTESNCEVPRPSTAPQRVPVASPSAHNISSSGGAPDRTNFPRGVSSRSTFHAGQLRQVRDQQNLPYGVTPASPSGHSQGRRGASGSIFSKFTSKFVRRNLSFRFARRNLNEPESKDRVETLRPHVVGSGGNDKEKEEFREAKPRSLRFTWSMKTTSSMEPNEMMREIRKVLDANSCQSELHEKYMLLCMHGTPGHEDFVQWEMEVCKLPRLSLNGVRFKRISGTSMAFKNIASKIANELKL
Sequence of SRPK1(h) (Q96SB4 whole entry): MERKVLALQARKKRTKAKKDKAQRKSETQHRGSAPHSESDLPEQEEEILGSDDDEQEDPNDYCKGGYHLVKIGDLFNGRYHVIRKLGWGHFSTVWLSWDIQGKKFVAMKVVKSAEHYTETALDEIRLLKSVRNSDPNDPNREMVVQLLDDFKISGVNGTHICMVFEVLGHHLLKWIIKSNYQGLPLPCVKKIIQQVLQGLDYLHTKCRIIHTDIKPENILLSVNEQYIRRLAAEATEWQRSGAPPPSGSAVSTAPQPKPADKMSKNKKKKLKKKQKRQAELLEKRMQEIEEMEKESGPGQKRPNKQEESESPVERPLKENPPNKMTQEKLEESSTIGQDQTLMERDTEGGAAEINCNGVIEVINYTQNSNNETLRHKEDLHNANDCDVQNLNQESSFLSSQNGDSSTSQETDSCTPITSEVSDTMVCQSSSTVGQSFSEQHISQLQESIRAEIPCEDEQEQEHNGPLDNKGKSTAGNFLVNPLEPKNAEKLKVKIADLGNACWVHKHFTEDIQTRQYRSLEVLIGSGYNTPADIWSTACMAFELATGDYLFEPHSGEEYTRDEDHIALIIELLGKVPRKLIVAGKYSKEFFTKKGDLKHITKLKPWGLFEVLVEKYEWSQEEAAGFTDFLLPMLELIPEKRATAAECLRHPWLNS

As to `Fc1ccc(CNc2ncnc3ccc(F)cc23)cc1` [5aa, 6-Fluoro-N-(4-fluorobenzyl)-4-Quinazolinamine], the remaining activity at 10 µM at PAR-1Bα(h) (setting [1]) was 84%; on MLK2(h) (setting [1]), 95%; on CK1δ(h) (setting [1]), 74%; on Axl(h) (setting [1]) it was 62%; on MARK1(h) (setting [1]), 89%; at MAP4K5(h) (setting [1]), 92%. The remaining activity at 10 µM on SRPK1(h) (setting [1]) was 121%; on MLK3(h) (setting [1]) it was 99%; on PKG1β(h) (setting [1]) it was 91%.
With `Fc1ccc(CCNc2ncnc3ccc(F)cc23)cc1` [5as, 6-Fluoro-N-[2-(4-Fluorophenyl)Ethyl]-4-Quinazolinamine], the remaining activity at 10 µM stood at 86% on PAR-1Bα(h) (setting [2]); 97% on MLK2(h) (setting [2]); 80% at CK1δ(h) (setting [2]); 90% at Axl(h) (setting [2]); 96% at MARK1(h) (setting [2]); 89% on MAP4K5(h) (setting [2]). Also, the remaining activity at 10 µM at SRPK1(h) (setting [2]) was 112%; on MLK3(h) (setting [2]), 99%; on PKG1β(h) (setting [2]) it was 84%.
As to `Fc1ccc2ncnc(NCCc3ccc(Cl)cc3)c2c1` [5at, N-[2-(4-Chlorophenyl)Ethyl]-6-Fluoro-4-Quinazolinamine], the remaining activity at 10 µM at PAR-1Bα(h) (setting [3]) turned out to be 101%; on MLK2(h) (setting [3]), 93%; on CK1δ(h) (setting [3]), 80%; at Axl(h) (setting [3]) it was 75%; at MARK1(h) (setting [3]) it was 82%; at MAP4K5(h) (setting [3]), 97%. Also, the remaining activity at 10 µM on SRPK1(h) (setting [3]) turned out to be 108%; at MLK3(h) (setting [3]) it was 114%; at PKG1β(h) (setting [3]) it was 76%.
In the case of `COc1ccc2ncnc(Nc3cccc(F)c3)c2c1` [5ay, N-(3-Fluorophenyl)-6-Methoxy-4-Quinazolinamine], the remaining activity at 10 µM is 83% on PAR-1Bα(h) (setting [4]); 96% on MLK2(h) (setting [4]); 86% at CK1δ(h) (setting [4]); 64% on Axl(h) (setting [4]); 89% at MARK1(h) (setting [4]); 80% at MAP4K5(h) (setting [4]). The remaining activity at 10 µM at SRPK1(h) (setting [4]) was determined as 116%; on MLK3(h) (setting [4]) it was 97%; at PKG1β(h) (setting [4]), 94%.
